Test system: not given
Experiment: not given
Conditions: not given

melting point [°C]	Structure (SMILES)
185 to 186	Cc1nc(N2CCN(CCCC(F)(F)F)C2=O)sc1-c1cc[nH]n1 [Example 17.1, 1-(4-methyl-5-(1H-pyrazol-3-yl)thiazol-2-yl)-3-(4,4,4-trifluorobutyl)imidazolidin-2-one]
145 to 149	Cc1nc(N2CCN(Cc3ccc(F)cc3)C2=O)sc1-c1nn[nH]n1 [Example 18.1, 1-(4-fluorobenzyl)-3-(4-methyl-5-(2H-tetrazol-5-yl)thiazol-2-yl)imidazolidin-2-one]

The next lines start with the molecule.

Structure (SMILES)	melting point [°C]
Cc1nc(N2CCN(Cc3ccc(F)cc3)C2=O)sc1C(=O)NCc1csc(C(C)C)n1 [Example 16.4, 2-(3-(4-fluorobenzyl)-2-oxoimidazolidin-1-yl)-N-((2-isopropylthiazol-4-yl)methyl)-4-methylthiazole-5-carboxamide]	170 to 172
Cc1nc(-n2cnn(Cc3ccc(F)cc3)c2=O)sc1C(=O)NCc1cccc(N(C)C)c1 [Example 16.5, N-(3-(dimethylamino)benzyl)-2-(1-(4-fluorobenzyl)-5-oxo-1H-1,2,4-triazol-4(5H)-yl)-4-methylthiazole-5-carboxamide]	149 to 151
Cc1nc(-n2cnn(CC3CC3(F)F)c2=O)sc1C(N)=O (centres unmarked) [Example 16.6, 2-(1-((2,2-difluorocyclopropyl)methyl)-5-oxo-1H-1,2,4-triazol-4(5H)-yl)-4-methylthiazole-5-carboxamide]	273 to 275
Cc1nc(-n2cnn(Cc3ccc(F)cc3)c2=O)sc1C(=O)NCc1csc(C(C)C)n1 [Example 16.7]	151 to 153
Cc1nc(N2CCN(CC3CC3(F)F)C2=O)sc1-c1cc[nH]n1 (centres unmarked) [Example 17, 1-((2,2-difluorocyclopropyl)methyl)-3-(4-methyl-5-(1H-pyrazol-3-yl)thiazol-2-yl)imidazolidin-2-one]	227 to 230
Cc1nc(-n2cnn(Cc3ccc(F)cc3)c2=O)sc1-c1nn[nH]n1 [Example 18, 1-(4-fluorobenzyl)-4-(4-methyl-5-(2H-tetrazol-5-yl)thiazol-2-yl)-1H-1,2,4-triazol-5(4H)-one]	136 to 139

Target: T1, stearoyl-CoA desaturase (SCD1) (Mus musculus, UniProt P13516)
T1 construct: Male ICR outbread mice, on a high-carbohydrate, low fat diet; from tissue; host or cells: liver microsomes of male ICR mice on a high-carbohydrate, low fat diet
T1 sequence (P13516 1-355): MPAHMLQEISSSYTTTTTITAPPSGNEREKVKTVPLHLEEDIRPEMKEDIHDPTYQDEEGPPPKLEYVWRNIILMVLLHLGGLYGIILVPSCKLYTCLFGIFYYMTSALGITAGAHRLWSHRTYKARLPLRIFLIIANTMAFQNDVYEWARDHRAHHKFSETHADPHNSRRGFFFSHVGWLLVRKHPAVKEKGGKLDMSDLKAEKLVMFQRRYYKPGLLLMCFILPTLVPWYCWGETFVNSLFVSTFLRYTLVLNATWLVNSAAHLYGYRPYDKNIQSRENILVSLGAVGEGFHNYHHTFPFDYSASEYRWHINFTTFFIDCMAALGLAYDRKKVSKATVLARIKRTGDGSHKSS
Experiment: Stearoyl-CoA desaturase inhibition, mouse liver microsomes (release of 3H2O from [9,10-3H]stearoyl-CoA)
Assay type: biochemical
Conditions: 15 min incubation, 25° C., read-out: Microsomal IC50
Text: The identification of compounds of the invention as SCD inhibitors was readily accomplished using the SCD enzyme and microsomal assay procedure described in Shanklin J. and Summerville C., Proc. Natl. Acad. Sci. USA (1991), Vol. 88, pp. 2510-2514.
Measuring Stearoyl-CoA Desaturase Inhibition Activity of a Test Compound Using Mouse Liver Microsomes
The identification of compounds of the invention as SCD inhibitors was readily accomplished using the SCD microsomal assay procedure described in Shanklin J. and Summerville C., Proc. Natl. Acad. Sci. USA (1991), Vol. 88, pp. 2510-2514.
Male ICR outbread mice, on a high-carbohydrate, low fat diet, under light halothane (15% in mineral oil) anesthesia are sacrificed by exsanguination during periods of high enzyme activity. Livers are immediately rinsed with cold 0.9% NaCl solution, weighed and minced with scissors. All procedures are performed at 4° C. unless specified otherwise. Livers are homogenized in a solution (1/3 w/v) containing 0.25 M sucrose, 62 mM potassium phosphate buffer (pH 7.0), 0.15 M KCl, 15 mM N-acetyleysteine, 5 mM MgCl2, and 0.1 mM EDTA using 4 strokes of a Potter-Elvehjem tissue homogenizer. The homogenate is centrifuged at 10,400×g for 20 min to eliminate mitochondria and cellular debris. The supernatant is filtered through a 3-layer cheesecloth and centrifuged at 105,000×g for 60 min. The microsomal pellet is gently resuspended in the same homogenization solution with a small glass/teflon homogenizer and stored at −70° C. The absence of mitochondrial contamination is enzymatically assessed. The protein concentration is measured using bovine serum albumin as the standard.
Desaturase activity is measured as the release of ^3H2O from [9,10-^3H]stearoyl-CoA. Reactions per assay point conditions are as follows: 2 μL 1.5 mM stearoyl-CoA, 0.25 μL 1 mCi/mL ^3H stearoyl CoA, 10 μL 20 mM NADH, 36.75 μL 0.1 M PK buffer (K2HPO4/NaH2PO4, pH 7.2). The test compound or control solution is added in a 1 μL volume. Reactions are started by adding 50 μL of microsomes (1.25 mg/mL). The plates are mixed and after 15 min incubation on a heating block (25° C.), the reactions are stopped by the addition of 10 μL 60% PCA. An aliquot of 100 μL is then transferred to a filter plate pretreated with charcoal and the plate centrifuged at 4000 rpm for 1 minute. The flow through containing the ^3H2O released by the SCD1 desaturation reaction is added to scintillation fluid and the radioactivity measured in a Packard TopCount. The data is analysed to identify the IC50 for test compounds and reference compounds.
The activity was defined in terms of % SCD enzyme activity remaining at the desired concentration of the test compound or as the IC50 concentration. The IC50 (affinity) of the example compounds toward the stearoyl-CoA desaturase is comprised between around […] and 0.0001 μM or between around 5 μM and 0.0001 μM or between around 1 μM and 0.0001 μM.

IC50 [nM]	Structure (SMILES)
98	Cc1nc(-n2cnn(C(C)c3ccccc3)c2=O)sc1C(=O)NCc1cccnc1 (centres unmarked) [Example 20-5, 4-methyl-2-(5-oxo-1-(1-phenylethyl)-1H-1,2,4-triazol-4(5H)-yl)-N-(pyridin-3-ylmethyl)thiazole-5-carboxamide]
80	Cc1nc(-n2cnn(C(C)c3ccccc3)c2=O)sc1C(N)=O (centres unmarked) [Example 20-6, 4-methyl-2-(5-oxo-1-(1-phenylethyl)-1H-1,2,4-triazol-4(5H)-yl)thiazole-5-carboxamide]
1720	Cc1nc(-n2cnn(Cc3ccc(F)cc3)c2=O)sc1C(=O)NCc1ccc(C(F)(F)F)nc1 [Example 20-8, 2-(1-(4-fluorobenzyl)-5-oxo-1H-1,2,4-triazol-4(5H)-yl)-4-methyl-N-((6-(trifluoromethyl)pyridin-3-yl)methyl)thiazole-5-carboxamide]
8	Cc1nc(-n2cnn(C(C)c3ccccc3)c2=O)sc1C(=O)NCc1cncs1 (centres unmarked) [Example 20-10, 4-methyl-2-(5-oxo-1-(1-phenylethyl)-1H-1,2,4-triazol-4(5H)-yl)-N-(thiazol-5-ylmethyl)thiazole-5-carboxamide]
18	Cc1nc(-n2cnn(CC3CC3(F)F)c2=O)sc1C(=O)NCc1cncs1 (centres unmarked) [Example 20-12, 2-(1-((2,2-difluorocyclopropyl)methyl)-5-oxo-1H-1,2,4-triazol-4(5H)-yl)-4-methyl-N-(thiazol-5-ylmethyl)thiazole-5-carboxamide]
208	Cc1nc(-n2cnn(C(C)c3ccccc3)c2=O)sc1C(=O)NCc1csc(C(F)(F)F)n1 (centres unmarked) [Example 20-17, 4-methyl-2-(5-oxo-1-(1-phenylethyl)-1H-1,2,4-triazol-4(5H)-yl)-N-((2-(trifluoromethyl)-thiazol-4-yl)-methyl)thiazole-5-carboxamide]
709	Cc1nc(N2CCN(Cc3ccc(C(F)(F)F)cc3)C2=O)sc1C(=O)NCc1ccc2nccn2c1 [Example 20-22, N-(imidazo[1,2-a]pyridin-6-ylmethyl)-4-methyl-2-(2-oxo-3-(4-(trifluoromethyl)-benzyl)imidazolidin-1-yl)-thiazole-5-carboxamide]
40	Cc1nc(N2CCN(Cc3cccc(F)c3)C2=O)sc1C(N)=O [Example 20-24, 2-(3-(3-fluorobenzyl)-2-oxoimidazolidin-1-yl)-4-methylthiazole-5-carboxamide]
11	Cc1nc(N2CCN(C(C)c3ccccc3)C2=O)sc1C(=O)NCc1cncs1 (centres unmarked) [Example 20-26, 4-methyl-2-(2-oxo-3-(1-phenylethyl)-imidazolidin-1-yl)-N-(thiazol-5-yl-methyl)thiazole-5-carboxamide]
13	Cc1nc(-n2cnn(Cc3cc(F)cc(F)c3)c2=O)sc1C(=O)NCc1ccccn1 [Example 20-52, 2-(1-(3,5-difluorobenzyl)-5-oxo-1H-1,2,4-triazol-4(5H)-yl)-4-methyl-N-(pyridin-2-ylmethyl)-thiazole-5-carboxamide]
20	Cc1nc(-n2cnn(Cc3ccc(OC(F)(F)F)cc3)c2=O)sc1C(=O)NCc1ccccn1 [Example 20-54, 4-methyl-2-(5-oxo-1-(4-(trifluoromethoxy)-benzyl)-1H-1,2,4-triazol-4(5H)-yl)-N-(pyridin-2-ylmethyl)-thiazole-5-carboxamide]
119	Cc1nc(-c2sc(N3CCN(Cc4ccc(OC(F)(F)F)cc4)C3=O)nc2C)n[nH]1 [Example 20-57, 1-(4-methyl-5-(5-methyl-1H-1,2,4-triazol-3-yl)thiazol-2-yl)-3-(4-(trifluoromethoxy)-benzyl)imidazolidin-2-one]
551	Cc1nc(-n2cnn(CC3CC3(F)F)c2=O)sc1C(=O)NCc1cnn(C)c1 (centres unmarked) [Example 20-76, 2-(1-((2,2-difluorocyclopropyl)methyl)-5-oxo-1H-1,2,4-triazol-4(5H)-yl)-4-methyl-N-((1-methyl-1H-pyrazol-4-yl)methyl)thiazole-5-carboxamide]
11	Cc1cc(CNC(=O)c2sc(N3CCN(CC4CC4)C3=O)nc2C)no1 [Example 20-83, 2-(3-(cyclopropylmethyl)-2-oxoimidazolidin-1-yl)-4-methyl-N-((5-methylisoxazol-3-yl)methyl)thiazole-5-carboxamide]
8	Cc1nc(N2CCN(Cc3cc(Cl)cc(Cl)c3)C2=O)sc1C(=O)NCc1ccccn1 [Example 20-90, 2-(3-(3,5-dichlorobenzyl)-2-oxoimidazolidin-1-yl)-4-methyl-N-(pyridin-2-ylmethyl)thiazole-5-carboxamide]
38	Cc1nc(N2CCN(CCC3CC3)C2=O)sc1C(=O)NCc1ccccn1 [Example 20-103, 2-(3-(2-cyclopropylethyl)-2-oxoimidazolidin-1-yl)-4-methyl-N-(pyridin-2-ylmethyl)thiazole-5-carboxamide]

Further lines, the molecule ahead of its results:

Structure (SMILES)	IC50 [nM]
Cc1nc(N2CCN(CC(C)C)C2=O)sc1C(=O)NCc1cccnc1 [Example 12.18, 2-(3-isobutyl-2-oxoimidazolidin-1-yl)-4-methyl-N-(pyridin-3-ylmethyl)thiazole-5-carboxamide]	156
Cc1nc(N2C(=O)N(Cc3ccc(F)cc3)C3CC32)sc1C(=O)NCc1cccnc1 (centres unmarked) [Example 19, 2-(4-(4-fluorobenzyl)-3-oxo-2,4-diazabicyclo[3.1.0]hexan-2-yl)-4-methyl-N-(pyridin-3-ylmethyl)thiazole-5-carboxamide]	1210

— patent US8318949B2, “Organic compounds” (Novartis AG, priority 2008, dated 2012)
